Laboratory results from patent US20080280937A1, “Ligand Conjugates of Vinca Alkaloids, Analogs, and Derivatives” (priority 2005, published 2008).
“And” between values parts separate entries of the source, which are not always exact repeats. Equal values may be shown once. “Also recorded” adds a separate entry of the source. Read-outs that look alike come from different tables or passages of the source. Marks after values point to notes of the source that are not given here. One block for each compound: values may come before it.

How the values were obtained:
[1] = Animal Weight Determination; conditions: for Weight Loss: nu/nu mice with KB tumors; for weight of Balb/c mice: 3 μmol/kg TIW for 3 weeks (FIG. 25B)
Description: Animal Weight Determination. The percentage weight change of the mice was determined in mice (5 mice/group) on the indicated days post-tumor inoculation (PTI) as shown in the graph for the samples described in the related tumor volume assay.

[2] = system: KB tumors; assay type: in vivo, nu/nu mice; conditions: for % T/C / LCK (log of cell kill): animals not showing complete response
Description: Inhibition of Tumor Growth in Mice. The anti-tumor activity of the compounds described herein, when administered intravenously (i.v.) to tumor-bearing animals, was evaluated in nu/nu mice bearing subcutaneous KB tumors. Approximately 8 to 11 days post tumor inoculation in the subcutis of the right axilla with 1×10^6 KB cells (tumor volume range at t0=between 60 and 80 mm^3), mice (5/group) were injected i.v. three times a week (TIW), for a defined length of time (e.g., 2-3 weeks) with (a) a defined dose level on a per kilogram body weight basis of a drug delivery conjugate described herein, or (b) an equivalent dose volume of PBS (control). Tumor growth was measured using calipers at 2-day or 3-day intervals in each treatment group. Tumor volumes were calculated using the equation V=a×b^2/2, where “a” is the length of the tumor and “b” is the width expressed in millimeters.

[3] = molecular target: T1, folate receptors (FRs) (Homo sapiens, UniProt P15328); experiment: Relative Affinity Assay (displacement of 3H-folic acid on FR-positive KB cells); assay type: binding; conditions: for relative binding affinity versus folic acid at folic acid receptors: figure legends, folic acid = 1.0, 1 hour at 37° C; for Relative Folate Receptor Affinity: summary table
T1 construct: FR-positive KB cells were heavily seeded into 24-well cell culture plates; endogenous in cells; host or cells: KB cells
T1 sequence (P15328 25-234): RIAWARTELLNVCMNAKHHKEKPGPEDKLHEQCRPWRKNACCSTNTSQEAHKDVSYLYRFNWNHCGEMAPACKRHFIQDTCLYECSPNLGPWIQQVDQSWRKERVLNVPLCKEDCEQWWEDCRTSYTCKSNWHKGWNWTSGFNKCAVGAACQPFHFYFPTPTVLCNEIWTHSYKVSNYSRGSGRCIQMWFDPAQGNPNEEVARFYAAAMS
Description: Relative Affinity Assay. The affinity of the compounds described herein for folate receptors (FRs) relative to folate was determined according to a previously described method (Westerhof, G. R., J. H. Schornagel, et al. (1995) Mol. Pharm. 48: 459-471) with slight modification. Briefly, FR-positive KB cells were heavily seeded into 24-well cell culture plates and allowed to adhere to the plastic for 18 h. Spent incubation media was replaced in designated wells with folate-free RPMI (FFRPMI) supplemented with 100 nM ^3H-folic acid in the absence and presence of increasing concentrations of test article or folic acid. Cells were incubated for 60 min at 37° C. and then rinsed 3 times with PBS, pH 7.4, followed by the addition of 500 μL of 1% SDS in PBS, pH 7.4. Cell lysates were then collected and added to individual vials containing 5 mL of scintillation cocktail, and then counted for radioactivity. Negative control tubes contained only the ^3H-folic acid in FFRPMI (no competitor). Positive control tubes contained a final concentration of 1 mM folic acid, and CPMs measured in these samples (representing non-specific binding of label) were subtracted from all samples.

[4] = system: folate receptor-positive KB cells; assay type: cell-based, human; conditions: for competition by excess folic acid of effect on 3H-thymidine incorporation: with versus without at least 100-fold excess of folic acid
Description: Inhibition of Cellular DNA Synthesis. The compounds described herein were evaluated using an in vitro cytotoxicity assay that predicts the ability of the drug to inhibit the growth of folate receptor-positive KB cells. The compounds were comprised of folate linked to a respective chemotherapeutic drug, as prepared according to the protocols described herein. The KB cells were exposed for predetermined periods of time at 37° C. to the indicated concentrations of folate-drug conjugate in the absence or presence of at least a 100-fold excess of folic acid. The cells were then rinsed with fresh culture medium and incubated in fresh culture medium for 72 hours at 37° C. Cell viability was assessed using a ^3H-thymidine incorporation assay.

[5] = KB cells, without excess folic acid, read-out: IC50, 3H-thymidine incorporation in KB cells

SMILES: CC[C@]1(O)C[C@@H]2CN(CCc3c([nH]c4ccccc34)[C@@](C(=O)OC)(c3cc4c(cc3OC)N(C)[C@H]3[C@@](O)(C(=O)NN)[C@H](O)[C@]5(CC)C=CCN6CC[C@]43[C@@H]65)C2)C1 [DAVLBH, desacetylvinblastine hydrazide]
Weight Loss ([1]; 0.5 μmol/kg TIW 2 wk): 0% | Weight Loss ([1]; 0.75 μmol/kg TIW 2 wk): 0% | Weight Loss ([1]; 1 μmol/kg TIW 2 wk): >10% | Weight Loss ([1]; 2 μmol/kg TIW 2 wk): >20% | CR (animals of 5 showing a complete response) ([2]; 0.5 μmol/kg TIW 2 wk): 0/5 | % T/C ([2]; 0.5 μmol/kg TIW 2 wk): 146% | LCK (log of cell kill) ([2]; 0.5 μmol/kg TIW 2 wk): 0.6 | CR (animals of 5 showing a complete response) ([2]; 0.75 μmol/kg TIW 2 wk): 0/5 | % T/C ([2]; 0.75 μmol/kg TIW 2 wk): 265% | LCK (log of cell kill) ([2]; 0.75 μmol/kg TIW 2 wk): 1.8 | CR (animals of 5 showing a complete response) ([2]; 1 μmol/kg TIW 2 wk): 0/5 | % T/C ([2]; 1 μmol/kg TIW 2 wk): 246% | LCK (log of cell kill) ([2]; 1 μmol/kg TIW 2 wk): 1.8 | CR (animals of 5 showing a complete response) ([2]; 2 μmol/kg TIW 2 wk): 0/5^(d) | deaths ([2]; 2 μmol/kg TIW 2 wk, 5 animals): ^(d)5 deaths.

SMILES: CC[C@]1(O)C[C@H]2CN(CCc3c([nH]c4ccccc34)[C@@](C(=O)OC)(c3cc4c(cc3OC)N(C)[C@H]3[C@@](O)(C(=O)NNC(=O)OCCSSC[C@H](NC(=O)[C@H](CN)NC(=O)[C@H](CC(=O)O)NC(=O)[C@H](CC(=O)O)NC(=O)[C@H](CC(=O)O)NC(=O)CC[C@H](NC(=O)c5ccc(NCc6cnc7nc(N)[nH]c(=O)c7n6)cc5)C(=O)O)C(=O)O)[C@H](O)[C@]5(CC)C=CCN6CC[C@]43[C@@H]65)C2)C1 [Example 10]
relative binding affinity versus folic acid at folic acid receptors [3]: 0.24 | IC50 [4, 5]: 58 nM and ~58 nM | competition by excess folic acid of effect on 3H-thymidine incorporation [4]: folate competes

SMILES: CC[C@]1(O)C[C@H]2CN(CCc3c([nH]c4ccccc34)[C@@](C(=O)OC)(c3cc4c(cc3OC)N(C)[C@H]3[C@@](O)(C(=O)NNC(=O)OCCSSC[C@H](NC(=O)CC[C@H](NC(=O)c5ccc(NCc6cnc7nc(N)[nH]c(=O)c7n6)cc5)C(=O)O)C(=O)O)[C@H](O)[C@]5(CC)C=CCN6CC[C@]43[C@@H]65)C2)C1 [Example 18]
relative binding affinity versus folic acid at folic acid receptors [3]: 0.13 | Relative Folate Receptor Affinity [3]: 0.13 | Folate Receptor Competition ([4]; summary table): Yes | competition by excess folic acid of effect on 3H-thymidine incorporation [4]: folate competes

SMILES: CC[C@]1(O)C[C@H]2CN(CCc3c([nH]c4ccccc34)[C@@](C(=O)OC)(c3cc4c(cc3OC)N(C)[C@H]3[C@@](O)(C(=O)NNC(=O)OCCSSC[C@H](NC(=O)[C@H](CC(=O)O)NC(=O)[C@H](CC(=O)O)NC(=O)[C@H](CCCNC(=N)N)NC(=O)[C@H](CC(=O)O)NC(=O)[C@H](CCC(=O)O)NC(=O)c5ccc(NCc6cnc7nc(N)[nH]c(=O)c7n6)cc5)C(=O)O)[C@H](O)[C@]5(CC)C=CCN6CC[C@]43[C@@H]65)C2)C1 [Example 11]
weight of nu/nu mice ([1]; 2 μmol/kg TIW for 3 weeks (FIG. 26B)): little effect on the weight of the mice; also recorded: absence of an effect

SMILES: CC[C@]1(O)C[C@H]2CN(CCc3c([nH]c4ccccc34)[C@@](C(=O)OC)(c3cc4c(cc3OC)N(C)[C@H]3[C@@](O)(C(=O)NNC(=O)OCCSSC[C@H](NC(=O)c5ccc(NCc6cnc7nc(N)[nH]c(=O)c7n6)cc5)C(=O)O)[C@H](O)[C@]5(CC)C=CCN6CC[C@]43[C@@H]65)C2)C1 [Example 19]
relative binding affinity versus folic acid at folic acid receptors [3]: 0.046 | Relative Folate Receptor Affinity [3]: 0.05 | Folate Receptor Competition ([4]; summary table): Yes | competition by excess folic acid of effect on 3H-thymidine incorporation [4]: folate competes

SMILES: CC[C@]1(O)C[C@H]2CN(CCc3c([nH]c4ccccc34)[C@@](C(=O)OC)(c3cc4c(cc3OC)N(C)[C@H]3[C@@](O)(C(=O)NNC(=O)OCCSSC[C@H](NC(=O)[C@H](CC(=O)O)NC(=O)[C@H](CC(=O)O)NC(=O)[C@H](CCCNC(=N)N)NC(=O)[C@H](CC(=O)O)NC(=O)CC[C@H](NC(=O)c5ccc(NCc6cnc7nc(N)[nH]c(=O)c7n6)cc5)C(=O)O)C(=O)O)[C@H](O)[C@]5(CC)C=CCN6CC[C@]43[C@@H]65)C2)C1 [Example 7]
Relative Folate Receptor Affinity [3]: 0.17 | IC50 [4, 5]: 9 nM and ~16 nM | IC50 ([4]; summary table, read-out: IC50 KB Cells): < 100 nM

SMILES: Nc1nc2ncc(CNc3ccc(C(=O)N[C@H](CCC(=O)NC[C@H](N)C(=O)N[C@@H](CC(=O)O)C(=O)N[C@@H](CS)C(=O)O)C(=O)O)cc3)nc2c(=O)[nH]1 [EC20]
competition with Example 7 at folate receptors ([2]; 40 μmol/kg EC20 (rhenium complex) with 2 μmol/kg Example 7): acts as a competitor of Example 7 at folate receptors

SMILES: CC[C@]1(O)C[C@H]2CN(CCc3c([nH]c4ccccc34)[C@@](C(=O)OC)(c3cc4c(cc3OC)N(C)[C@H]3[C@@](O)(C(=O)NCCOC(=O)OCCSSC[C@H](NC(=O)[C@H](CC(=O)O)NC(=O)[C@H](CCCNC(=N)N)NC(=O)[C@H](CC(=O)O)NC(=O)CC[C@H](NC(=O)c5ccc(NCc6cnc7nc(N)[nH]c(=O)c7n6)cc5)C(=O)O)C(=O)O)[C@H](O)[C@]5(CC)C=CCN6CC[C@]43[C@@H]65)C2)C1 [Example 22]
weight of Balb/c mice [1]: little effect on the weight of the mice; also recorded: absence of an effect | relative binding affinity versus folic acid at folic acid receptors [3]: 0.26

relative binding affinity versus folic acid at folic acid receptors [3]: 1.0
SMILES: Nc1nc2ncc(CNc3ccc(C(=O)N[C@@H](CCC(=O)O)C(=O)O)cc3)nc2c(=O)[nH]1 [folic acid, reference compound]

SMILES: CC[C@]1(O)C[C@H]2CN(CCc3c([nH]c4ccccc34)[C@@](C(=O)OC)(c3cc4c(cc3OC)N(C)[C@H]3[C@@](O)(C(=O)NNC(=O)OCCSSC[C@H](NC(=O)[C@H](CC(=O)O)NC(=O)[C@H](CC(=O)O)NC(=O)[C@H](CC(=O)O)NC(=O)[C@H](CC(=O)O)NC(=O)CC[C@H](NC(=O)c5ccc(NCc6cnc7nc(N)[nH]c(=O)c7n6)cc5)C(=O)O)C(=O)O)[C@H](O)[C@]5(CC)C=CCN6CC[C@]43[C@@H]65)C2)C1 [Example 21]
weight of Balb/c mice [1]: little effect on the weight of the mice; also recorded: absence of an effect | relative binding affinity versus folic acid at folic acid receptors [3]: 0.16
